Measured values as given in patent US20090247520A1, “INHIBITORS OF ANTIGEN RECEPTOR-INDUCED NF-kappa B ACTIVATION” (The Burnham Institute for Medical Research, priority 2008, published 2009).

Legend:
[1] = tested on: doxorubicin-induced NF-κB activity; test: NF-κB reporter in HEK293-NF-κB-luc cells stimulated with doxorubicin; type: cell-based; conditions: 2 μM doxorubicin; CID-2858522 4 μM, IKK inhibitor 10 μM
Procedure: FIGS. 3 (A-F) HEK293-NF-κB-luc cells were pretreated with CID-2858522 (4 μM), IKK inhibitor, BMS-335541 (10 μM), or PKC inhibitor, Bisindolylmaleimide I (1 μM) for 2 hrs and then transfected with plasmids encoding CD4/TLR4 (A), CD40 (B), NOD1 (C), NOD2 (D), cIAP2-MALT1 (E), or XIAP and TAB (F), or pcDNA as control (compounds were not removed). After 48 hrs, luciferase activity was measured expressing data as fold increase relative to unstimulated cells (mean±SD; n=3). (G-H) HEK293-NF-κB-luc cells were pretreated with CID-2858522 (4 μM), or IKK inhibitor, BMS-335541 (10 μM) for 2 hrs and then cultured with 2 μM doxorubicin (G) or 16 μM retinoic acid (H). After 48 hrs, luciferase activity was measured as above.
Counter Screening and Secondary Assays. To counter-screen for inhibitors of the TNF pathway, HEK293-NFκB-Luc cells were seeded at 10^5 cells per well in 90 μL medium in white 96-well plates (Greiner Bio-One) and cultured overnight, before adding compounds (5 μL in medium) to cells. […] Luciferase activity was measured using Britelite kit (Perkin Elmer). […] Cells were cultured in medium containing CID-2858522 or other compounds and luciferase activity was measured 48 h later. […] Reactions were then initiated by addition of 50 μL 160 nM ATP (Sigma) in PBS and luciferase activity was measured 2 h later using a luminometer (LJL Biosystems, Sunnyvale, Calif.).

[2] = tested on: PMA/Ionomycin-induced IL-2 production; test: IL-2 production by PMA/Ionomycin-stimulated Jurkat T cells (ELISA); type: cell-based, human
Procedure: (§1) FIG. 4A: Jurkat T cells were treated by anti-cd3/anti-cd28/anti-mouse IgG (6 μg/mL) or PMA/Ion (10 ng/mL) for 24 h, IL-2 production in medium was measured by ELISA kit. FIG. 4B-E: Jurkat T cells were pretreated by IKK inhibitor (B), PKC inhibitor (C), CID-2858522 (D) for 2 h and then treated by anti-cd3/anti-cd28/anti-mouse IgG (6 μg/mL) or PMA/Ion (10 ng/mL) for 24 h, IL-2 production in medium was measured by ELISA kit; E, Jurkat cells were treated by CID-2858522, PKC inhibitor and IKK inhibitor for 24 h, cell viability was measured by ATPlite kit.
(§2) In T cells, the antigen receptor stimulates several signal transduction pathways that converge on the IL-2 gene promoter, including NF-κB, NF-AT, and AP-1. For evaluating the effects of CID-2858522 on TCR-initiated, NF-κB-driven events in lymphocytes, we employed Jurkat T-leukemia cells, which have been utilized extensively as model for studying TCR-signaling leading to IL-2 gene expression. For these experiments, Jurkat cells were stimulated with either anti-CD3 (to activate the TCR complex) and anti-CD28 (co-stimulator) or with PMA/Ionomycin, in the presence or absence of CID-2858522, IKK inhibitor, or PKC inhibitor, then IL-2 production was measured 24 hrs later in culture supernatants. […] In contrast, CID-2858522 suppressed IL-2 production by CD3/CD28- and PMA/Ionomycin-stimulated Jurkat cells by approximately half (IC50) at concentrations <10 μM (FIG. 4D).
(§3) Lymphokine measurements. Human IL-2 or IL-8 levels in culture medium were measured by Enzyme-Linked Immunosorbent Assays (ELISAs), using BD OptEIA ELISAs (BD Biosciences, San Diego, Calif.), according to the manufacturer's protocol, using 96-well ELISA plates (BD Biosciences) and measuring absorbance within 30 minutes of initiating reactions using a SpectraMax 190 spectrophotometer (Molecular Devices).

[3] = tested on: anti-CD3/CD28-induced IL-2 production; test: IL-2 production by anti-CD3/CD28-stimulated Jurkat T cells (ELISA); type: cell-based, human; conditions: for suppression of IL-2 production: anti-CD3/CD28 Jurkat, IKK inhibitor ≦10 μM, PKC inhibitor <0.5 μM
Procedure: as §1, §2, §3

[4] = target: T1, IKK-beta (Homo sapiens, UniProt O14920); test: In vitro kinase assay IKK-beta (HTScan kit); type: biochemical; conditions: CID-2858522 up to 8 μM; STS 0.5 μM; IKK inhibitor 10 μM
T1 construct: purchased Cell Signaling, Danvers, Mass
T1 sequence (O14920 whole entry): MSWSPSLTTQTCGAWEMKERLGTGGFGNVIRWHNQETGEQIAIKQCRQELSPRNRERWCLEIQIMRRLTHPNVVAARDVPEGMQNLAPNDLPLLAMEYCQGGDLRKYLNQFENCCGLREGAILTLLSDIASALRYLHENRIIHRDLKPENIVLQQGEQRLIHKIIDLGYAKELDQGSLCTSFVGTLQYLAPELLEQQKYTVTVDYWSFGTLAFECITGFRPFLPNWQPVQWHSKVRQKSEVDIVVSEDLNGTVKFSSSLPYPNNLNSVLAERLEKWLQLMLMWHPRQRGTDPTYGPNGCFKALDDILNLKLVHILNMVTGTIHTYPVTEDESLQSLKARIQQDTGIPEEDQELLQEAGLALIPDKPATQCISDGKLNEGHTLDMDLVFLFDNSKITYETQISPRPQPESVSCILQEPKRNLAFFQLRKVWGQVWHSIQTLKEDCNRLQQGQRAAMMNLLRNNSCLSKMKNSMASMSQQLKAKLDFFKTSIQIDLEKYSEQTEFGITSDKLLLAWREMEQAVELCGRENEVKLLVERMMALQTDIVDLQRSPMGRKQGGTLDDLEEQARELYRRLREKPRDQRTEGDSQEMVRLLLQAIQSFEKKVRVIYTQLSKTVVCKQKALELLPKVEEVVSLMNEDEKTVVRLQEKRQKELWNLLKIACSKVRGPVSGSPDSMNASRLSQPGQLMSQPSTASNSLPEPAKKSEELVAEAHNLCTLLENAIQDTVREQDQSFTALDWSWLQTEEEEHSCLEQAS
Procedure: CID-2858522 (8 μM) were tested in in vitro IKK beta (A), PKC beta […] or PKC theta (C) kinase assays using kits. STS (0.5 μM), IKK inhibitor (10 μM) and PKC inhibitor (1 μM) were used as positive controls.
In Vitro Kinase Assays. PKC-beta, PKC-theta and IKK-beta in vitro kinase assays were performed using the HTScan Kinase Assay Kit (Cell Signaling, Danvers, Mass.) according to manufacturer's protocols. A panel of >300 kinases was screened by Ambit, Inc.

Structure (SMILES): Cc1ccc2nc(NCCN)c3ncc(C)n3c2c1 [BMS-345541, reference compound]
- suppression of doxorubicin-induced NF-κB activity [1]: suppressed
- suppression of PMA/Ionomycin-induced IL-2 production ([2]; Jurkat): partially suppressed
- suppression of IL-2 production [3]: 90%
- inhibition of IKK-beta kinase activity [4]: potent inhibition

Structure (SMILES): Cc1cc2nc(NCCCO)n(CC(=O)c3cc(C(C)(C)C)c(O)c(C(C)(C)C)c3)c2cc1C [Compound 1, 2-(2-(3-Hydroxypropylamino)-5,6-dimethyl-1H-benzo[d]imidazol-1-yl)-1-(3,5-di-tert-butyl-4-hydroxyphenyl)ethanone]
- suppression of doxorubicin-induced NF-κB activity [1]: did not inhibit
- IC50 ([2]; Homo sapiens, PMA/Ionomycin-stimulated Jurkat cells, 24 h, read-out: IC50, suppression of IL-2 production (by approximately half)): < 10 µM
- IC50 ([3]; Homo sapiens, CD3/CD28-stimulated Jurkat cells, 24 h, read-out: IC50, suppression of IL-2 production (by approximately half)): < 10 µM
- inhibition of IKK-beta kinase activity [4]: failed to suppress

Structure (SMILES): CN(C)CCCn1cc(C2=C(c3c[nH]c4ccccc34)C(=O)NC2=O)c2ccccc21 [Bisindolylmaleimide I, reference compound]
- suppression of IL-2 production ([2]; PMA/Ionomycin Jurkat, PKC inhibitor <0.5 μM): 80-90%
- suppression of IL-2 production [3]: 80-90%
